Our source for the IC50 and Ratio values is ChEMBL document CHEMBL1126769, “Synthesis and kappa-opioid antagonist selectivity of a norbinaltorphimine congener. Identification of the address moiety required for kappa-antagonist activity” (J Med Chem, 1993).

For orientation: IC50 means the concentration needed to halve the response being measured.

Experiment [1] has as its target Mu-type opioid receptor (Cavia porcellus, UniProt P97266). The experiment is described as follows: Inhibitory activity against mu-opioid receptor in guinea pig ileum longitudinal muscle using morphine. In kind it is tissue-based.
Experiment [2] has as its target Delta-type opioid receptor (Mus musculus, UniProt P32300). Briefly: Inhibitory activity against delta-opioid receptor in mouse vas deferens preparation using DADLE.
In experiment [3] the target is Kappa-type opioid receptor (Cavia porcellus, UniProt P41144). Briefly: Inhibitory activity against kappa-opioid receptor in guinea pig ileum longitudinal muscle using ethylketazocine. In kind it is tissue-based.
Sequence of Kappa-type opioid receptor (P41144 whole entry): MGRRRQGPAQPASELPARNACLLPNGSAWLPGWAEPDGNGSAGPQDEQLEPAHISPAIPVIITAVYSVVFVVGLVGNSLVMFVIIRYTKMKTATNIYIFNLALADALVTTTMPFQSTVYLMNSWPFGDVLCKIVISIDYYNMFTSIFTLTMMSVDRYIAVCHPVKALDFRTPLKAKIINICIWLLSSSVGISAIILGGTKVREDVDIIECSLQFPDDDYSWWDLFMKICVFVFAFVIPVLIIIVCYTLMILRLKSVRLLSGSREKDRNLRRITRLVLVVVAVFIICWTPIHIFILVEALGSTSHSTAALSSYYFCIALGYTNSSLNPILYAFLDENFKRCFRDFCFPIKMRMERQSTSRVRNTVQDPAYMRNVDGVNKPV
The target of experiment [4] is Opioid receptors; delta & kappa (Homo sapiens) (UniProt P41145+P41143). The experiment is described as follows: Selectivity ratio between kappa-opioid receptor to delta-opioid receptor. The format is protein assay.
Sequence of Opioid receptors; delta & kappa (Homo sapiens) (P41143 whole entry, looked up): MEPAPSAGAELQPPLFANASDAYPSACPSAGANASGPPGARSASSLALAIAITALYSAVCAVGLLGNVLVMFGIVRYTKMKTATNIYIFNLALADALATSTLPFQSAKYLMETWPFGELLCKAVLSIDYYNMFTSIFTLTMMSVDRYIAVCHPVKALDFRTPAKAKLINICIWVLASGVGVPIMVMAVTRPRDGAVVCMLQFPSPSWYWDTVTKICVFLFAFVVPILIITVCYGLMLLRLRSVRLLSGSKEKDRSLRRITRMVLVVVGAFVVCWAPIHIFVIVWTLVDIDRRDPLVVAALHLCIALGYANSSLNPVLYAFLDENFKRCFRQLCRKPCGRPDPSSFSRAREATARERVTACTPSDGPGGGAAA
Sequence of Opioid receptors; delta & kappa (Homo sapiens) (P41145 whole entry, looked up): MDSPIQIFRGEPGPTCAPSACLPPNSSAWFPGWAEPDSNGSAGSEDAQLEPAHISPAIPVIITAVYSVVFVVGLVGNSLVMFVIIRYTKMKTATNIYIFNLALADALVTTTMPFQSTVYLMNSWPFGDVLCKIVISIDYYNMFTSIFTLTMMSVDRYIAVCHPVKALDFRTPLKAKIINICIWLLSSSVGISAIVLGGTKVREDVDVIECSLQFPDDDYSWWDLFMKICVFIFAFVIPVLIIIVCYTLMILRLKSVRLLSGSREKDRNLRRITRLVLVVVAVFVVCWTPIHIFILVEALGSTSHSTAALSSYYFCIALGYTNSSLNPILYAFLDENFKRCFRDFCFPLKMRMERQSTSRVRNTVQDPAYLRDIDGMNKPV
In experiment [5] the target is Opioid receptors; mu & kappa (Homo sapiens) (UniProt P41145+P35372). The experiment is described as follows: Selectivity ratio between kappa-opioid receptor to mu-opioid receptor. In kind it is protein assay.
Sequence of Opioid receptors; mu & kappa (Homo sapiens) (P35372 whole entry, looked up): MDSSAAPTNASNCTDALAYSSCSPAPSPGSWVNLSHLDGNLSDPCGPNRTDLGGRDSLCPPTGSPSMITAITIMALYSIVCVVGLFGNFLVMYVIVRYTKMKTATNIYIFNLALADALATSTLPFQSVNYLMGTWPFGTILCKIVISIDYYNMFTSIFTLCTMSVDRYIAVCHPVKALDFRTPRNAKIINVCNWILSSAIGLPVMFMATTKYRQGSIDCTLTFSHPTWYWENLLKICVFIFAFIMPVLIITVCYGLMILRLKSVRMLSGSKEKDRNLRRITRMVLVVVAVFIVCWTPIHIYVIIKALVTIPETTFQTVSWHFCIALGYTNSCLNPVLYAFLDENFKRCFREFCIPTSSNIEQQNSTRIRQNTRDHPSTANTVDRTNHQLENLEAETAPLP
Sequence of Opioid receptors; mu & kappa (Homo sapiens) (P41145 whole entry, looked up): as the sequence (P41145 whole entry, looked up) above

Sequence of Mu-type opioid receptor (P97266 whole entry): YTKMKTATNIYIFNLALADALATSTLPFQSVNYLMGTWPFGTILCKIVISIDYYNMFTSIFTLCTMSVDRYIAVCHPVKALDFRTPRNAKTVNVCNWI
Sequence of Delta-type opioid receptor (P32300 whole entry): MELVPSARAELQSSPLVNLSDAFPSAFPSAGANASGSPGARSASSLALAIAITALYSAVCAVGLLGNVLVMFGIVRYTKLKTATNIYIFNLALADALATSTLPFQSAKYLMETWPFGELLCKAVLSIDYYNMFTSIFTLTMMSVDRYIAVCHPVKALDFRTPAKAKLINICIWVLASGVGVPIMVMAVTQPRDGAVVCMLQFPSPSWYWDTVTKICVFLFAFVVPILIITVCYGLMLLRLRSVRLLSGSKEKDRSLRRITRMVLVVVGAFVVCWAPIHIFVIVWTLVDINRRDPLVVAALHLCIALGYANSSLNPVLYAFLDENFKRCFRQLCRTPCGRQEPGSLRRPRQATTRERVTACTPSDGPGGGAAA

`Cn1c2c(c3c1[C@@H]1Oc4c(O)ccc5c4[C@@]14CCN(CC1CC1)[C@H](C5)[C@]4(O)C3)C[C@H]1CNCC[C@@H]1C2`: the results for the IC50 in experiment [1], in experiment [2] and in experiment [3] were 1 nM, 1.1 nM and 40 nM, respectively. Also, the Ratio came to 36 in experiment [4] and 40 in experiment [5].

Regarding `Cn1c2c(c3c1[C@@H]1Oc4c(O)ccc5c4[C@@]14CCN(CC1CC1)[C@H](C5)[C@]4(O)C3)C[C@H]1CN(C(=O)OCc3ccccc3)CC[C@@H]1C2`, the IC50 in experiment [1] worked out at 1.7 nM; in experiment [2], 9.2 nM; in experiment [3], 1.6 nM. The Ratio was determined as 0.2 in experiment [4] and 0.9 in experiment [5].

Consider `Oc1ccc2c3c1O[C@H]1c4[nH]c5c(c4C[C@@]4(O)[C@@H](C2)N(CC2CC2)CC[C@]314)C[C@@]1(O)[C@H]2Cc3ccc(O)c4c3[C@@]1(CCN2CC1CC1)[C@H]5O4` [NORBINALTORPHIMINE], for which the IC50 came to 8.3 nM in experiment [1] and 181 nM in experiment [3]. Besides, the Ratio in experiment [4] was determined as 17; in experiment [5] it was 22.
